Data on 32 compounds can be found in US9216999B2, “Substituted pyrrolo[2,3-h][1,6]naphthyridines and compositions thereof as JAK inhibitors” (priority 2011, dated 2015).

Common to all, as to assay type: biochemical
What all share (settings): ATP 100 μM

One experiment has as its target JAK1 (Homo sapiens (Human), UniProt P23458). The experiment can be described thus: Enzyme assay (Assay Example^a 1), JAK1.
Another experiment addresses JAK2 (Homo sapiens (Human), UniProt O60674). The experiment can be described thus: Enzyme assay (Assay Example^a 1), JAK2.
In a further experiment the target is JAK3 (Homo sapiens (Human), UniProt P52333). The experiment can be described thus: Enzyme assay (Assay Example^a 1), JAK3.
Chain of JAK3 (P52333 whole entry): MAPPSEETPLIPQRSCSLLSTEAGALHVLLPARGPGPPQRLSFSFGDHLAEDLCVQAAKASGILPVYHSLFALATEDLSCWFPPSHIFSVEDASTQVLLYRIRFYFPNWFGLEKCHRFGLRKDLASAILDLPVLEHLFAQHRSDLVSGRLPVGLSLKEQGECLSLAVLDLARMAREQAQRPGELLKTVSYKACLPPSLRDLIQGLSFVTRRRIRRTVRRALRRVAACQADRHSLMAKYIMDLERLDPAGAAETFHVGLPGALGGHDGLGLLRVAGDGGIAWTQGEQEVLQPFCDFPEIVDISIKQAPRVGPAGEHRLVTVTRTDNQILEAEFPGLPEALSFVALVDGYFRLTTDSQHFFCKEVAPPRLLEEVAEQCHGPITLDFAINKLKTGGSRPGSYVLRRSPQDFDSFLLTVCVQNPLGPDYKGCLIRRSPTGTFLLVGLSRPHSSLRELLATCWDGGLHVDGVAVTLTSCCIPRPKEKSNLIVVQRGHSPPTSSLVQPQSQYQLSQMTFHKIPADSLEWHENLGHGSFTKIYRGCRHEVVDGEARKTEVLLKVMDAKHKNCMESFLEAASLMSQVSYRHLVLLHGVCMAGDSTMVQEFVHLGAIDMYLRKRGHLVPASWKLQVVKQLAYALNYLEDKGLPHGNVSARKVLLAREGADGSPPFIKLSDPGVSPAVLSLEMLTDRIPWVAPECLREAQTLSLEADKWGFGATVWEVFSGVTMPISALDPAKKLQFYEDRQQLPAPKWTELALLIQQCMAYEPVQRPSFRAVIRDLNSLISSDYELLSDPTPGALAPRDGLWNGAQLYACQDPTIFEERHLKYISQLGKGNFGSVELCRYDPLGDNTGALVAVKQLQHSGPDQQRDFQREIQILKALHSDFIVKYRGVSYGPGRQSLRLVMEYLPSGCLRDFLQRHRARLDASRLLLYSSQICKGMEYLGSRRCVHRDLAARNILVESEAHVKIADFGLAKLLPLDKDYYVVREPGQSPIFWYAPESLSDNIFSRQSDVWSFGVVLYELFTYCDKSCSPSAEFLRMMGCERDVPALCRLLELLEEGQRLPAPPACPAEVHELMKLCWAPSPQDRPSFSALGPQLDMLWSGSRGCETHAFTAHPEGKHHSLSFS
The target of the next experiment is Tyk2 (Homo sapiens (Human), UniProt P29597). The experiment can be described thus: Enzyme assay (Assay Example^a 1), Tyk2.
Chain of Tyk2 (P29597 whole entry): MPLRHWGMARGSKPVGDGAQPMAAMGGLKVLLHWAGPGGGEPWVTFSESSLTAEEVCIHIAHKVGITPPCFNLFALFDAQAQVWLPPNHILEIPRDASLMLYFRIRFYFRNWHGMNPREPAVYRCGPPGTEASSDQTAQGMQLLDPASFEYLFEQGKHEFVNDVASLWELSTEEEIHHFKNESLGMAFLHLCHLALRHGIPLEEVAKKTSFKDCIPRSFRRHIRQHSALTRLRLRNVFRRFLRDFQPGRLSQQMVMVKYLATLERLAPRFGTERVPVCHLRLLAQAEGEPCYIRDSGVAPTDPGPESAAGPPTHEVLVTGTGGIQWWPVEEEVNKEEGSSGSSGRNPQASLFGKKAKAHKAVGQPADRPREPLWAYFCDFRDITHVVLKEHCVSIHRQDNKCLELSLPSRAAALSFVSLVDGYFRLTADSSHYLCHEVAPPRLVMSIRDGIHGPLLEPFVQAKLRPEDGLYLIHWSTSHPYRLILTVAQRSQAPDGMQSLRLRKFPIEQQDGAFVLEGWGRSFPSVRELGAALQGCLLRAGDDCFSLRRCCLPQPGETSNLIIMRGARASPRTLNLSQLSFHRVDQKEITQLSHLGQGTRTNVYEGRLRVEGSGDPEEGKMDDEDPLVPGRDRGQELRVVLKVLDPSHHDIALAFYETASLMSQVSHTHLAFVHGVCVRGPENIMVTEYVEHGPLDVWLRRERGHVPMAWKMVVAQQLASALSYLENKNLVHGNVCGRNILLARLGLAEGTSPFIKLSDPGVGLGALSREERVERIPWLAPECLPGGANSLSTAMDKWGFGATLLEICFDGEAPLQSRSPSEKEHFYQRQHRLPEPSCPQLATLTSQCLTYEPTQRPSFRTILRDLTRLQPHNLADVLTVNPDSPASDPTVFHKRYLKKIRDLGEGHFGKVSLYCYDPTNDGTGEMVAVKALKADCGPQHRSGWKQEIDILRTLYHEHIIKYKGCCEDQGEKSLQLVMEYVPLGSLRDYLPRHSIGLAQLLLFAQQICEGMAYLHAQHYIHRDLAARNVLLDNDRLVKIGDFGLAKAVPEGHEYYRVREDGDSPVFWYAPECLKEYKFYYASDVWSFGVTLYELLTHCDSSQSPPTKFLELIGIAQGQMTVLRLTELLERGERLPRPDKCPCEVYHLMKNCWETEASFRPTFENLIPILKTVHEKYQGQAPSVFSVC

Usually IC50 stands for the concentration needed to halve the response being measured. A high value points to weaker potency in that assay. In the case of `O[C@H]1Cc2ccccc2[C@H]1NC1CCC(c2nnn3cnc4[nH]ccc4c23)CC1` (mixture of isomers) [compound 378, (1R,2S)-1-{[4-(7H-pyrrolo[3,2-e][1,2,3]triazolo[1,5-c]pyrimidin-1-yl)cyclohexyl]amino}-2,3-dihydro-1H-inden-2-ol], the IC50 at JAK1 worked out at 0.004 µM; against JAK2, 0.071 µM; against JAK3, 0.41 µM; against Tyk2, 0.2 µM.

Consider `O[C@@H]1Cc2ccccc2[C@@H]1NC1CCC(c2nnn3cnc4[nH]ccc4c23)CC1` (mixture of isomers) [compound 379, (1S,2R)-1-{[4-(7H-pyrrolo[3,2-e][1,2,3]triazolo[1,5-c]pyrimidin-1-yl)cyclohexyl]amino}-2,3-dihydro-1H-inden-2-ol], for which the IC50 came out at 0.013 µM against JAK1, 0.11 µM against JAK2, 0.66 µM on JAK3 and 0.29 µM against Tyk2.

For `OC(CN[C@H]1CC[C@@H](c2nnn3cnc4[nH]ccc4c23)CC1)(c1ccccc1)C(F)(F)F` (mixture of isomers) [196a, 3-{[cis-4-(7H-pyrrolo[3,2-e][1,2,3]triazolo[1,5-c]pyrimidin-1-yl)cyclohexyl]amino}-1,1,1-trifluoro-2-phenylpropan-2-ol], the IC50 at JAK1 (Table^a 154) is 0.06 µM; at JAK2 (Table^a 154), 0.75 µM.

With `OC(CN[C@H]1CC[C@H](c2nnn3cnc4[nH]ccc4c23)CC1)(c1ccccc1)C(F)(F)F` (mixture of isomers) [196b, 3-{[trans-4-(7H-pyrrolo[3,2-e][1,2,3]triazolo[1,5-c]pyrimidin-1-yl)cyclohexyl]amino}-1,1,1-trifluoro-2-phenylpropan-2-ol], the IC50 on JAK1 (Table^a 154) was 0.0032 µM; at JAK2 (Table^a 154), 0.036 µM.

In the case of `OC(CN[C@H]1CC[C@H](c2nnn3cnc4[nH]ccc4c23)CC1)(c1ccc(Cl)cc1)C(F)(F)F` (mixture of isomers) [199b, 3-((trans-4-(7H-pyrrolo[3,2-e][1,2,3]triazolo[1,5-c]pyrimidin-1-yl)cyclohexyl)amino)-2-(4-chlorophenyl)-1,1,1-trifluoropropan-2-ol], the values for the IC50 at JAK1 (Table^a 154), at JAK2 (Table^a 154) and at Tyk2 (Table^a 154) were 0.0035 µM, 0.035 µM and 0.44 µM, respectively.

As for `OC(CN[C@H]1CC[C@H](c2nnn3cnc4[nH]ccc4c23)CC1)(c1ccc(F)cc1)C(F)(F)F` (mixture of isomers) [200b, 3-{[trans-4-(7H-pyrrolo[3,2-e][1,2,3]triazolo[1,5-c]pyrimidin-1-yl)cyclohexyl]amino}-1,1,1-trifluoro-2-(4-fluorophenyl)propan-2-ol], the values for the IC50 against JAK1 (Table^a 154), against JAK2 (Table^a 154) and on Tyk2 (Table^a 154) were 0.0025 µM, 0.032 µM and 0.24 µM, respectively.

For the compound `O=C(OCc1ccccc1)N1CCCC(c2nnn3cnc4[nH]ccc4c23)C1` (racemic) [compound 14], the values for the IC50 on JAK1 (Table^a 154), on JAK2 (Table^a 154) and against Tyk2 (Table^a 154) were 0.021 µM, 0.11 µM and 2.2 µM, respectively.

Regarding `O=C(CC(F)(F)F)N1CCCC(c2nnn3cnc4[nH]ccc4c23)C1` (racemic) [compound 17], the IC50 amounted to 0.029 µM against JAK1 (Table^a 154), 0.076 µM against JAK2 (Table^a 154), 2.1 µM on JAK3 (Table^a 154) and 0.57 µM against Tyk2 (Table^a 154).

In the case of `Cc1cc(NC(=O)N2CCCC(c3nnn4cnc5[nH]ccc5c34)C2)sn1` (racemic) [compound 21], the IC50 against JAK1 (Table^a 154) was found to be 0.015 µM; against JAK2 (Table^a 154) it was 0.11 µM; on JAK3 (Table^a 154), 0.9 µM; against Tyk2 (Table^a 154), 0.71 µM.

As for `CC(NC[C@H]1CC[C@H](c2nnn3cnc4[nH]ccc4c23)CC1)c1ccc(F)c(F)c1` (mixture of isomers) [compound 109], the IC50 came to 0.0016 µM against JAK1 (Table^a 154), 0.011 µM against JAK2 (Table^a 154), 0.16 µM on JAK3 (Table^a 154) and 0.072 µM against Tyk2 (Table^a 154).

For the compound `OC(CNC[C@H]1CC[C@H](c2nnn3cnc4[nH]ccc4c23)CC1)(c1ccccc1)C(F)(F)F` (mixture of isomers) [compound 172, 3-({[trans-4-(7H-pyrrolo[3,2-e][1,2,3]triazolo[1,5-c]pyrimidin-1-yl)cyclohexyl]methyl}amino)-1,1,1-trifluoro-2-phenylpropan-2-ol], the IC50 on JAK1 (Table^a 154) worked out at 0.013 µM; on JAK2 (Table^a 154), 0.093 µM; at Tyk2 (Table^a 154), 0.63 µM.

For `Fc1ccc([C@@H]2C[C@H]2CN[C@H]2CC[C@H](c3nnn4cnc5[nH]ccc5c34)CC2)cc1` (relative stereo) [389b, trans-N-{[trans-2-(4-fluorophenyl)cyclopropyl]methyl}-4-(7H-pyrrolo[3,2-e][1,2,3]triazolo[1,5-c]pyrimidin-1-yl)cyclohexanamine], the IC50 at JAK1 was 0.0079 µM; on JAK2, 0.14 µM; against JAK3, above 1 µM; at Tyk2 it was 0.67 µM.

Turning to `O[C@H]1CCCC[C@H]1CNC[C@H]1CC[C@H](c2nnn3cnc4[nH]ccc4c23)CC1` (relative stereo) [compound 312, cis-2-[({[trans-4-(7H-pyrrolo[3,2-e][1,2,3]triazolo[1,5-c]pyrimidin-1-yl)cyclohexyl]methyl}amino)methyl]cyclohexanol], the IC50 at JAK1 is 0.012 µM; on JAK2 it was 0.045 µM; on JAK3, above 1 µM; on Tyk2 it was 0.37 µM.

For `FC(F)(F)C1CCC(N2CCC(c3nnn4cnc5[nH]ccc5c34)CC2)CC1` (single isomer, unassigned) [56a], the half-maximal inhibitory concentration (IC50) against JAK1 (Table^a 154) is 0.5 µM; against JAK2 (Table^a 154), above 1 µM; on JAK3 (Table^a 154), above 1 µM; against Tyk2 (Table^a 154), above 1 µM.

Consider `FC(F)(F)C1CCC(N2CCC(c3nnn4cnc5[nH]ccc5c34)CC2)CC1` (single isomer, unassigned) [56b], for which the IC50 against JAK1 (Table^a 154) is 0.035 µM; on JAK2 (Table^a 154), 0.6 µM; against JAK3 (Table^a 154) it was above 1 µM; at Tyk2 (Table^a 154), above 1 µM.

As to `c1ccc(CCCN[C@H]2CC[C@@H](c3nnn4cnc5[nH]ccc5c34)CC2)cc1` [136a], the half-inhibitory concentration (IC50) at JAK1 (Table^a 154) was 0.14 µM; against JAK2 (Table^a 154), above 1 µM; against JAK3 (Table^a 154), above 1 µM; against Tyk2 (Table^a 154) it was above 1 µM.

Regarding `c1ccc(CCCN[C@H]2CC[C@H](c3nnn4cnc5[nH]ccc5c34)CC2)cc1` [136b], the IC50 was 0.016 µM at JAK1 (Table^a 154), 0.29 µM against JAK2 (Table^a 154), above 1 µM against JAK3 (Table^a 154) and 0.45 µM against Tyk2 (Table^a 154).

Take `N#Cc1ccc(CN[C@H]2CC[C@@H](c3nnn4cnc5[nH]ccc5c34)CC2)cc1` [137a]: the IC50 is 0.032 µM at JAK1 (Table^a 154), 0.49 µM on JAK2 (Table^a 154), above 1 µM at JAK3 (Table^a 154) and 0.31 µM on Tyk2 (Table^a 154).

As for `N#Cc1ccc(CN[C@H]2CC[C@H](c3nnn4cnc5[nH]ccc5c34)CC2)cc1` [137b], the IC50 was found to be 0.0041 µM at JAK1 (Table^a 154), 0.039 µM on JAK2 (Table^a 154), 0.38 µM against JAK3 (Table^a 154) and 0.088 µM against Tyk2 (Table^a 154).

`FC(F)(F)c1ccc(CN[C@H]2CC[C@@H](c3nnn4cnc5[nH]ccc5c34)CC2)cc1` [138a]: the IC50 was 0.023 µM at JAK1 (Table^a 154), 0.74 µM on JAK2 (Table^a 154), above 1 µM against JAK3 (Table^a 154) and 0.25 µM against Tyk2 (Table^a 154).

With `FC(F)(F)c1ccc(CN[C@H]2CC[C@H](c3nnn4cnc5[nH]ccc5c34)CC2)cc1` [138b], the IC50 worked out at 0.0043 µM against JAK1 (Table^a 154), 0.043 µM against JAK2 (Table^a 154), 0.4 µM against JAK3 (Table^a 154) and 0.046 µM against Tyk2 (Table^a 154).

`c1cc2c(ncn3cnc(C4CCCCC4)c23)[nH]1` [compound 2]: the values for the 50% inhibitory concentration (IC50) against JAK1 and against JAK2 were 0.014 µM and 0.017 µM, respectively.

Consider `FC1(F)CCC(c2nnn3cnc4[nH]ccc4c23)CC1` [compound 64], for which the IC50 at JAK1 (Table^a 154) worked out at 0.033 µM; against JAK2 (Table^a 154), 0.12 µM; against Tyk2 (Table^a 154), 0.31 µM.

Take `c1cc2c(ncn3nnc(C4CCCCCC4)c23)[nH]1` [compound 66]: the IC50 amounted to 0.0033 µM against JAK1 (Table^a 154), 0.013 µM on JAK2 (Table^a 154) and 0.027 µM at Tyk2 (Table^a 154).

Consider `Cc1cc(OC(F)(F)F)ccc1NC[C@H]1CC[C@H](c2nnn3cnc4[nH]ccc4c23)CC1` [compound 104], for which the IC50 against JAK2 (Table^a 154), on JAK3 (Table^a 154) and against Tyk2 (Table^a 154) was above 1 µM each time.

Turning to `N#Cc1ccc(NC[C@H]2CC[C@H](c3nnn4cnc5[nH]ccc5c34)CC2)cc1C(F)(F)F` [compound 105], the figures for the IC50 against JAK2 (Table^a 154), against JAK3 (Table^a 154) and on Tyk2 (Table^a 154) were 0.19 µM, above 1 µM and 0.37 µM, respectively.

In the case of `FC(F)(F)Oc1ccc(CNC[C@H]2CC[C@H](c3nnn4cnc5[nH]ccc5c34)CC2)cc1` [compound 110], the IC50 is 0.0056 µM at JAK1 (Table^a 154) and 0.091 µM on JAK2 (Table^a 154).

Consider `FC(F)(F)c1cc(CN2CCC(c3nnn4cnc5[nH]ccc5c34)CC2)ccc1Cl` [compound 155], for which the half-inhibitory concentration (IC50) against JAK1 (Table^a 154) was 0.011 µM; against JAK2 (Table^a 154), 0.032 µM.

With `N#Cc1ccc(NC[C@H]2CC[C@H](c3nnn4cnc5[nH]ccc5c34)CC2)cc1Cl` [compound 247, 4-({[trans-4-(7H-pyrrolo[3,2-e][1,2,3]triazolo[1,5-c]pyrimidin-1-yl)cyclohexyl]methyl}amino)-2-chlorobenzonitrile], the IC50 was 0.013 µM at JAK1, 0.09 µM against JAK2 and above 1 µM against Tyk2.

As to `Fc1ccc(C2(NC[C@H]3CC[C@H](c4nnn5cnc6[nH]ccc6c45)CC3)CC2)cc1` [compound 323, N-{[trans-4-(7H-pyrrolo[3,2-e][1,2,3]triazolo[1,5-c]pyrimidin-1-yl)cyclohexyl]methyl}-1-(4-fluorophenyl)cyclopropanamine], the results for the IC50 at JAK2, on JAK3 and on Tyk2 were 0.034 µM, 0.83 µM and 0.78 µM, respectively.

`O=S(=O)(C[C@H]1CC[C@H](c2nnn3cnc4[nH]ccc4c23)CC1)c1ccccc1` [compound 364, 1-{trans-4-[(phenylsulfonyl)methyl]cyclohexyl}-7H-pyrrolo[3,2-e][1,2,3]triazolo[1,5-c]pyrimidine]: the IC50 at JAK1 came out at 0.0057 µM; on JAK2, 0.011 µM.

Take `N#CC(C#N)C[C@H]1CC[C@H](c2nnn3cnc4[nH]ccc4c23)CC1` [compound 432, 2-{[trans-4-(7H-Pyrrolo[3,2-e][1,2,3]triazolo[1,5-c]pyrimidin-1-yl)cyclohexyl]methyl}malononitrile]: the IC50 against JAK2 came to 0.0088 µM; against JAK3, 0.17 µM; against Tyk2, 0.067 µM.
